In patent US4656249A, “Peptides with relaxin activity” (Howard Florey Institute of Experimental Physiology and …, priority 1982, dated 1987):
Positions of bridges follow the written chain, without caps; N, C: chain ends. Residues, ends and D or L forms follow the SMILES beside them. Chains are numbered I, II in the order given. No end group written: not given here.

Columns and labels:
[1] = test system: rat uterine contractility; assay: rat uterine contractility assay (bioassay of recombined relaxin peptides); format: cell-based; details: for Recombination Yield (by BIOASSAY), actual combination yield based on the B chain: combination of A and B chains, yield measured by bioassay; for Recombination Yield (by BIOASSAY), recalculated on the basis of 100% yield for the recombined natural A22 and B28 chains: relative to recombined natural A22 + B28 = 100%
Protocol: The recombination of the relaxin peptide chains was monitored by HPLC and radioimmunoassay using an antibody raised to native porcine relaxin A22B29 and I125 Bolton-Hunter labelled A22B29 tracer (16). The biological activity of the recombined products was assessed using the rat uterine contractility assay (18).
The biological activity of the synthetic relaxin peptides was tested in the rat uterine contractility assay (18).

[2] = solubility behaviour of relaxin B chain peptides in aqueous solution; format: physicochemical; details: crude synthetic B chain
Source text: We have carried out research into the chemical synthesis of relaxin and its structural analogues as part of a systematic study of the structure-function relationships in the hormone molecule. The purified separate chains of pig relaxin have been obtained in approximately 10% yield (based on crude). The major impurities in the synthetic peptides appear to have arisen through side-reactions of the cysteine residues occurring during the HF cleavage step. In more recent syntheses improved yields have been obtained using the HF stable S-ethyl mercapto protecting group for cysteine. […] Column chromatography on Sephadex, cellulose, polyamide or polystyrene resins results in virtually a complete loss of peptide by irreversible absorption (16). These properties have made purification of synthetic relaxin B chain peptides and their coupling to A chain particularly difficult.
As shown by FIG. 3(c), the CD spectra indicate that shortening to 25 residues results in a change of from the beta-configuration to an unordered conformation. This conformational change is reflected in an enhanced solubility of the peptide in aqueous solution, a loss of the adsorptive behaviour and an improvement in the combination yield with the A chain. Using the above-described method the combination yield rises to 10%. […]

| Compound | Recombination Yield (by BIOASSAY), actual combination yield based on the B chain [1] [%] | Recombination Yield (by BIOASSAY), recalculated on the basis of 100% yield for the recombined natural A22 and B28 chains [1] [%] | pH at which the peptide is soluble [2] |
| --- | --- | --- | --- |
| CC[C@H](C)[C@@H]1NC(=O)[C@H](CC(=O)O)NC(=O)[C@H](CCCCN)NC(=O)[C@H](CCCNC(=N)N)NC(=O)[C@H]([C@@H](C)CC)NC(=O)[C@@H]2CSSC[C@H](NC(=O)[C@H](CCCCN)NC(=O)[C@H](CCC(=O)O)NC(=O)[C@H](CO)NC(=O)[C@@H](N)CC(C)C)C(=O)N[C@@H](CSSC[C@H](NC(=O)[C@H](C)NC(=O)[C@H](CCCCN)NC(=O)[C@@H](NC(=O)[C@H](Cc3ccccc3)NC(=O)[C@H](CC(=O)O)NC(=O)[C@H](CC(N)=O)NC(C)=O)[C@@H](C)CC)C(=O)NCC(=O)N[C@@H](CCCNC(=N)N)C(=O)N[C@@H](CCC(=O)O)C(=O)N[C@@H](CC(C)C)C(=O)N[C@@H](C(C)C)C(=O)N[C@@H](CCCNC(=N)N)C(=O)N[C@@H](CC(C)C)C(=O)N[C@@H](Cc3c[nH]c4ccccc34)C(=O)N[C@@H](C(C)C)C(=O)N[C@@H](CCC(=O)O)C(=O)N[C@@H]([C@@H](C)CC)C(=O)N[C@H](C(=O)NCC(N)=O)CSSC[C@@H](C(=O)O)NC(=O)[C@H](CC(C)C)NC(=O)[C@H](CCCNC(=N)N)NC(=O)[C@H](C)NC1=O)C(=O)N[C@@H](CCC(N)=O)C(=O)N[C@@H](C(C)C)C(=O)NCC(=O)N2 [SA (4-22) SB[N--acetyl](4-23)NH2] (I: Ac-NDFIKACGRELVRLWVEICG-NH2 / II: H-LSEKCCQVGCIRKDIARLC-OH; disulfide I:7-II:6, I:19-II:19, II:5-II:10) | 1.3 | 5 | – |
| I: RMTLSEKCCQVGCIRKDIARLC / II: Ac-NDFIKACGRELVRLWVEICG-NH2 (disulfide I:8-I:13, I:9-II:7, I:22-II:19) [SA (1-22) SB[N--acetyl](4-23)NH2] | 2.4 | 10 | – |
| B(1-29): synthetic porcine relaxin B chain of 29 residues (B chain of CMa') | – | – | > 5.5 |
